Results reported in ChEMBL document CHEMBL1268857, “Dolabellane Diterpenoids from the South Atlantic Gorgonian Convexella magelhaenica” (J Nat Prod, 2010).

Tests used:
[1] = Cytotoxicity against mouse LM3 cells; type: functional, cell-based
PANC-1 = assay: Cytotoxicity against human PANC1 cells; type: functional, cell-based

Compound	IC50 [1]	IC50 (PANC-1)
C=C(C)[C@@H]1CC[C@]2(C)C/C=C(\C)CC/C=C(\C)C(=O)C[C@@H]12	2.5 µM	39.8 µM
C=C(C)[C@@H]1[C@@H](OC(C)=O)C[C@]2(C)[C@H](OC(C)=O)/C=C(\C)CC/C=C(\C)C(=O)C[C@@H]12	17.8 µM	398 µM
